The results in this text go back to ChEMBL document CHEMBL5365432, “Anticancer Activities of DNA-Alkylating Pyrrole-Imidazole Polyamide Analogs Targeting RUNX Transcription Factors against p53-Mutated Pancreatic Cancer PANC-1 Cells” (J Med Chem, 2023).

Active and inactive are the calls of the source. The rule behind the calls is not given here.

The test system of data set [1] is DNA. Description: Binding affinity to DNA (unknown origin) assessed as formation of DNA alkylation product at 150 uM incubated for 18 hrs measured after 20 mins by HPLC/MALDI-TOF MS analysis. It is filed as nucleic-acid assay. Conditions: time 18.33 hrs.
Data set [2] deals with DNA. Description: Binding affinity to DNA (unknown origin) assessed as DNA alkylation at RUNX-binding site at 150 uM incubated for 18 hrs by HPLC analysis. It is filed as nucleic-acid assay.
The subject of data set [3] is PANC-1. Description: Cytotoxicity against human PANC-1 cells assessed as cell viability at 3 uM incubated for 3 days by colorimetric assay relative to control. Type of data set: functional. The conditions noted are these: PANC-1, 72 h, time 3 day, read-out: Activity.
Data set [4] is described as follows: Cytotoxicity against human hTERT-HPNE cells assessed as cell viability at 3 uM incubated for 3 days by colorimetric assay relative to control. Type of data set: toxicity, cell-based. The conditions noted are these: time 3 day, read-out: Activity.
Data set [5] deals with PANC-1. In words: Induction of apoptosis in human PANC-1 cells assessed as viable cells at 3 uM incubated for 72 hrs by Annexin V-FITC/PI staining based flow cytometry (reference value: 94.3 %). Type of data set: functional. Conditions: read-out: Activity.
The test system of data set [6] is PANC-1. Description: Induction of apoptosis in human PANC-1 cells assessed as early apoptotic cells at 3 uM incubated for 72 hrs by Annexin V-FITC/PI staining based flow cytometry (reference value: 1.5 %). It is filed as functional. On the technique in general: In flow cytometry, cells or beads pass a laser one at a time.
The subject of data set [7] is PANC-1. In words: Induction of apoptosis in human PANC-1 cells assessed as late apoptotic cells at 3 uM incubated for 72 hrs by Annexin V-FITC/PI staining based flow cytometry (reference value: 2.9 %). It is filed as functional.
Data set [8] has as its system PANC-1. Description: Induction of apoptosis in human PANC-1 cells assessed as necrotic cells at 3 uM incubated for 72 hrs by Annexin V-FITC/PI staining based flow cytometry (reference value: 1.2 %). It is filed as functional.
For data set [9], the system named is PANC-1. In words: Induction of apoptosis in human PANC-1 cells assessed as suppression of BCL11A mRNA level at 3 uM incubated for 48 hrs by RT-qPCR analysis. It is filed as functional, cell-based.
For data set [10], the system named is PANC-1. In words: Induction of apoptosis in human PANC-1 cells assessed as increase in phosphorylated p53 protein level at S15 residue at 3 uM incubated for 72 hrs by proteomic profiling array. It is filed as functional, cell-based.
The test system of data set [11] is PANC-1. In words: Induction of apoptosis in human PANC-1 cells assessed as increase in phosphorylated p53 protein level at S46 residue at 3 uM incubated for 72 hrs by proteomic profiling array. It is filed as functional, cell-based.
Data set [12] concerns PANC-1. In words: Induction of apoptosis in human PANC-1 cells assessed as increase in phosphorylated p53 protein level at S392 residue at 3 uM incubated for 72 hrs by proteomic profiling array. Type of data set: functional, cell-based.
Data set [13] has as its system PANC-1. Description: Induction of apoptosis in human PANC-1 cells assessed as upregulation of TAp73 mRNA level at 3 uM incubated for 48 hrs by RT-qPCR analysis. It is filed as functional, cell-based. In general terms: Real-time PCR tracks product formation cycle by cycle.
Data set [14] deals with PANC-1. Description: Induction of apoptosis in human PANC-1 cells assessed as upregulation of TAp63 mRNA level at 3 uM incubated for 48 hrs by RT-qPCR analysis. Type of data set: functional, cell-based.
Data set [15] relates to PANC-1. Description: Anti-cancer activity against human PANC-1 cells xenografted in CB17.Cg-PrkdcscidLystbg-j/CrlCrlj mouse assessed as reduction in tumor volume at 5 mg/kg, iv administered twice a week for 3 weeks. Type of data set: functional, organism-based. A general note: Xenograft models place foreign cells or tissue in a host animal.
Data set [16] can be described thus: Toxicity in CB17.Cg-PrkdcscidLystbg-j/CrlCrlj mouse xenografted with human PANC-1 cells assessed as body weight loss at 5 mg/kg, iv administered twice a week for 3 weeks. Type of data set: organism-based. The conditions noted are these: in vivo, 504 h.
In data set [17] the test system is PANC-1. Description: Anti-cancer activity against human PANC-1 cells xenografted in CB17.Cg-PrkdcscidLystbg-j/CrlCrlj mouse assessed as fold change in tumor volume at 1 mg/kg, iv administered twice a week for 3 weeks relative to gemcitabine. It is filed as functional.

Turning to `CN(C)CCCNC(=O)c1nc(NC(=O)c2cc(NC(=O)c3nc(NC(=O)c4nc(NC(=O)CCCNC(=O)c5cc(NC(=O)c6cc(NC(=O)c7cc(NC(=O)c8cc(NC(=O)CCNC(=O)CCCc9ccc(N(CCCl)CCCl)cc9)cn8C)cn7C)cn6C)cn5C)cn4C)cn3C)cn2C)cn1C`, the result in the data set on DNA [1] was Active. For the same molecule, the outcome with DNA [2] was inactive.
In the case of `CN(C)CCCNC(=O)c1cc(NC(=O)c2cc(NC(=O)c3cc(NC(=O)c4cc(NC(=O)CCCNC(=O)c5nc(NC(=O)c6nc(NC(=O)c7cc(NC(=O)c8nc(NC(=O)CCNC(=O)CCCc9ccc(N(CCCl)CCCl)cc9)cn8C)cn7C)cn6C)cn5C)cn4C)cn3C)cn2C)cn1C`, the outcome in the data set on DNA [1], in the data set with PANC-1 [9], in the data set with PANC-1 [10], in the data set on PANC-1 [11], with PANC-1 [12] and in the data set on PANC-1 [13] was Active. Further, the outcome in the data set with PANC-1 [15] was Active. The outcome in the data set with DNA [2] and in the data set with PANC-1 [14] was inactive. Moreover, the figures for the viability at 3 µM with PANC-1 [3] and in the data set on PANC-1 [5] were 74.7% and 73.1%, respectively. Moreover, the viability at 72 h, 3 µM in data set [4] turned out to be 79.5%. The Activity in the data set on PANC-1 [6] is on record as 12.5%; with PANC-1 [7], 12.4%; in the data set on PANC-1 [8], 1.9%; in data set [16], “Non-Toxic”.
Take `CN(C)CCCNC(=O)c1cc(NC(=O)c2cc(NC(=O)c3cc(NC(=O)c4cc(NC(=O)CCCNC(=O)c5nc(NC(=O)c6cc(NC(=O)c7nc(NC(=O)c8nc(NC(=O)CCNC(=O)CCCc9ccc(N(CCCl)CCCl)cc9)cn8C)cn7C)cn6C)cn5C)cn4C)cn3C)cn2C)cn1C`: the outcome in the data set with DNA [1], with DNA [2], in the data set with PANC-1 [9], with PANC-1 [10], with PANC-1 [11] and in the data set with PANC-1 [12] was Active. The result in the data set on PANC-1 [13] and in the data set on PANC-1 [15] was Active. Moreover, the figures for the viability at 3 µM in the data set with PANC-1 [3] and with PANC-1 [5] were 67.7% and 68.7%, respectively. The viability at 72 h, 3 µM in [4] amounted to 73.8%. The Activity in the data set with PANC-1 [6] is on record as 15%; in the data set on PANC-1 [7], 14%; in the data set with PANC-1 [8], 2.4%; in data set [16], “Non-Toxic”. For the same molecule, the outcome in the data set on PANC-1 [14] was inactive. In the data set on PANC-1 [17], the “fold change (FC)” value turned out to be 50.
`CN(C)CCCNC(=O)c1nc(NC(=O)c2nc(NC(=O)c3cc(NC(=O)c4nc(NC(=O)CCCNC(=O)c5cc(NC(=O)c6cc(NC(=O)c7cc(NC(=O)c8cc(NC(=O)CCNC(=O)CCCc9ccc(N(CCCl)CCCl)cc9)cn8C)cn7C)cn6C)cn5C)cn4C)cn3C)cn2C)cn1C`: the result in the data set with DNA [1], in the data set with DNA [2], with PANC-1 [9], in the data set with PANC-1 [10], in the data set with PANC-1 [11] and in the data set with PANC-1 [12] was Active. The outcome in the data set with PANC-1 [13], with PANC-1 [14] and with PANC-1 [15] was Active. In addition, the viability at 3 µM was 85% in the data set on PANC-1 [3] and 78.5% in the data set on PANC-1 [5]. The viability at 72 h, 3 µM in [4] is 82%. Moreover, the Activity is 10.8% with PANC-1 [6], 9.1% with PANC-1 [7], 1.6% in the data set on PANC-1 [8] and “Non-Toxic” in data set [16]. In addition, the “fold change (FC)” value with PANC-1 [17] is listed as 50.
